According to patent US11465998B2, “Therapeutic compounds and methods of use thereof” (Regents of the University of Minnesota, priority 2019, dated 2022):
Entries after “also recorded” stand apart in the source; their conditions may differ.

Columns and labels:
[1] = system: macrophage cell line derived from TRIF/TRAM knockout mice (NR-9568); experiment: Cytokine/chemokine induction in TRIF/TRAM double-knockout cell line; format: cell-based; settings: TRIF/TRAM double-knockout murine cell line
Method: (§1) Cytokine induction by 7e and 7f was examined in murine-derived cell lines. […] The absence of activity was not due to extensive plasma protein binding by re-examining under near-serum-free conditions.
(§2) Example 5: High-throughput screens in porcine blood: Curated compound collections were obtained from the Institute for Therapeutics Discovery & Development at the University of Minnesota. Compound transfers from source (80 nL of 10 mM stocks) to assay plates were performed using an Echo 550 acoustic liquid handler (Labcyte, Sunnyvale, Calif.). For most libraries, a target final concentration of 10 μM of compound (in a final volume of 80 μL for the assay described below) was achieved. Compound plates were hermetically sealed and stored at −80° C. until used. Fresh, heparin-anticoagulated porcine blood from healthy animals were obtained under USDA supervision from Midwest Research Swine, LLC (Glencoe, Minn.). 80 μL of hematocrit-enriched porcine blood (low-speed centrifugation, followed by resuspension in DMEM supplemented with 10% fetal bovine serum) was added to compound plates and incubated for 15 h. […] NF-κB translocation was assayed spectrophotometrically using an alkaline phosphatase-specific chromogen (present in HEK-detection medium as supplied by InvivoGen) at 620 nm using a SpectraMax M4 multimode microplate reader (Molecular Devices, Sunnyvale, Calif.). […] Example 7: Human NOD1/2-specific reporter gene assays (NF-κB induction), and TLR-2/-3/-4/-5/-7/-8/-9/STING/ISG counter-screens: The induction of NF-κB was quantified using human TLR-2/-3/-4/-5/-7/-8/-9/NOD-1/NOD-2/STING/ISG-specific, rapid-throughput, liquid handler-assisted reporter gene assays as previously described by us (Wu, W. et al. J. Med. Chem. 2010, 53, 3198-3213; Shukla, N. M. et al. J. Med. Chem. 2010, 53, 4450-4465; Agnihotri, G. et al. J. Med. Chem. 2011, 54, 1490-1510 and Ukani, R. et al. Bioorg. Med. Chem. Lett. 2012, 22, 293-295). […]

[2] = system: microglial cell line derived from MAL/MyD88 double knockout Mice (NR-9904); experiment: Cytokine/chemokine induction in MAL/MyD88 double-knockout cell line; format: cell-based; settings: MAL/MyD88 double-knockout murine cell line
Method: as §1, §2

[3] = system: THP-1 NF-κB reporter cells; experiment: NF-κB translocation in THP-1 NF-κB reporter cells, alone or with TLR stimuli; format: cell-based, human; settings: for enhancement of NF-κB translocation response to TLR2 stimuli: concurrent exposure to compound and TLR2 agonist; for enhancement of NF-κB translocation response to TLR2 stimuli / enhancement of NF-κB translocation response to TLR4 stimuli / enhancement of NF-κB translocation response to TLR5 stimuli: data not shown; for enhancement of NF-κB translocation response to TLR4 stimuli: concurrent exposure to compound and TLR4 agonist; for enhancement of NF-κB translocation response to TLR5 stimuli: concurrent exposure to compound and TLR5 agonist; for enhancement of NF-κB translocation response to TLR7 stimuli: concurrent exposure to graded concentrations of compound and TLR7 agonist; for enhancement of NF-κB translocation response to TLR8 stimuli: concurrent exposure to graded concentrations of compound and TLR8 agonist
From the text: Given that Rip2 activity is proximal to several of the components that constitute the multiprotein signaling complexes involved in innate immune signaling, and Rip2 participates in signaling through some, but not all, TLRs, it was of particular interest to examine if the benzimidazole-thiophene-2-carboxamide formula I compounds could synergize with other innate immune stimuli. […] THP-1 NF-κB reporter cells were concurrently exposed to graded concentrations of either 7e or 7f, and a variety of innate immune stimuli, including TLR-2, -3, -4, -5, -7, -8, and -9 agonists. An enhancement in NF-κB translocation was observed.

Compound | cytokine and chemokine induction [1] | cytokine and chemokine induction [2] | enhancement of NF-κB translocation response to TLR2 stimuli [3] | enhancement of NF-κB translocation response to TLR4 stimuli [3] | enhancement of NF-κB translocation response to TLR5 stimuli [3] | enhancement of NF-κB translocation response to TLR7 stimuli [3] | enhancement of NF-κB translocation response to TLR8 stimuli [3]
CCCCCc1nc2ccccc2n1-c1csc(C(N)=O)c1 [Compound 7e, 4-(2-Pentyl-1H-benzo[d]imidazol-1-yl)thiophene-2-carboxamide] | abrogation of responsiveness | abrogation of responsiveness | absent | absent | evident | particularly pronounced; also recorded: enhancement of NF-κB translocation responses | particularly pronounced; also recorded: enhancement of NF-κB translocation responses; also recorded: distinctly biphasic
CCCCCCc1nc2ccccc2n1-c1csc(C(N)=O)c1 [Compound 7f, 4-(2-Hexyl-1H-benzo[d]imidazol-1-yl)thiophene-2-carboxamide] | essentially identical to that of 7e | essentially identical to that of 7e | absent | absent | evident | particularly pronounced | particularly pronounced
